Laboratory results from article PMC6742966, “The Synergism of the Small Molecule ENOblock and Fluconazole Against Fluconazole-Resistant Candida albicans” (Frontiers in Microbiology, 2019).

Molecular target: T1, C. albicans enolase 1 (rCaEno1) (Candida albicans, UniProt P30575)
T1 construct: gene ENO1; full-length, C-terminal His6 tag
Experiment: SPR (Biacore T200, immobilized rCaEno1, steady-state affinity); also inhibits transglutaminase activity of purified rCaEno1, IC50 about […], with no significant effect on enolase activity
Format: binding

T1 sequence (P30575 whole entry): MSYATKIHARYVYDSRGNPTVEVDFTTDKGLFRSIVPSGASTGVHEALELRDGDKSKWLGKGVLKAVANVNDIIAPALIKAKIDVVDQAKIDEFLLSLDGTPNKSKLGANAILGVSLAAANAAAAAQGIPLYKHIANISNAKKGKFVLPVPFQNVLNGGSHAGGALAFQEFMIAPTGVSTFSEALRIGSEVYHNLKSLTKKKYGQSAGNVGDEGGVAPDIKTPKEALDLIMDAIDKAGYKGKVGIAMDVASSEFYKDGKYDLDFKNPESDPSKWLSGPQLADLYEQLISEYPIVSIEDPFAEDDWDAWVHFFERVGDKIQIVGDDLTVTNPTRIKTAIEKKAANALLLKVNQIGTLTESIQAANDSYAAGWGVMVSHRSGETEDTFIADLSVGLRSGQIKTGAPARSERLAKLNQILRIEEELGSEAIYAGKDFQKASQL

**Q.** `NCCOCCOCCNC(=O)Cc1ccc(Nc2nc(NCc3ccc(F)cc3)nc(NCC3CCCCC3)n2)cc1` [ENOblock] was tested. Which Kd did it give?
**A.** Its Kd is roughly 300 nM.
